Laboratory results published in PubChem BioAssay AID256 (DTP/NCI, 2004).
Several values for one entry are separate records, joined by “and”; a condition that tells them apart may be missing. Identical values can stand only once. Toxic doses and inconclusive results are not listed.

System: CD2F1 mice, L1210 leukemia ip, survival T/C
Assay: NCI In Vivo Anticancer Drug Screen. Data for tumor model L1210 Leukemia (intraperitoneal) in CD2F1 (CDF1) mice
Conditions: higher = longer survival
How it was run: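 Activity against a transplanted murine tumor was judged by comparing the compound group with a vehicle group. The outcome in the treated animals was divided by that in the controls.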

[1] = endpoint: mean survival time, dose: 100.0 mg/kg/injection, schedule: Q04DX003 (ip), vehicle: Klucel (hydroxypropylcellulose) (HPC)
[2] = endpoint: mean survival time, dose: 100.0 mg/kg/injection, schedule: Q01DX009 (ip), vehicle: saline with Tween-80
[3] = endpoint: mean survival time, dose: 200.0 mg/kg/injection, schedule: Q01DX009 (ip), vehicle: saline with Tween-80
[4] = endpoint: mean survival time, dose: 400.0 mg/kg/injection, schedule: Q01DX009 (ip), vehicle: saline with Tween-80
[5] = endpoint: mean survival time, dose: 100.0 mg/kg/injection, schedule: Q01DX001 (ip), vehicle: saline with Tween-80

O=C1c2ccccc2C(=O)N1OC1CCCCO1 (configuration not stated)
T/C [1]: 92 % of control | T/C (endpoint: mean survival time, dose: 200.0 mg/kg/injection, schedule: Q04DX003 (ip), vehicle: Klucel (hydroxypropylcellulose) (HPC)): 102 % of control | T/C (endpoint: mean survival time, dose: 400.0 mg/kg/injection, schedule: Q04DX003 (ip), vehicle: Klucel (hydroxypropylcellulose) (HPC)): 94 % of control

NS(=O)(=O)c1ccc(NC(=O)Nc2cccc(F)c2)cc1
T/C [2]: 98 % of control | T/C [3]: 106 % of control | T/C [4]: 97 % of control

Cc1ccc(S(=O)(=O)NS(=O)(=O)c2ccc(C)cc2)cc1
T/C (endpoint: mean survival time, dose: 25.0 mg/kg/injection, schedule: Q04DX003 (ip), vehicle: Klucel (hydroxypropylcellulose) (HPC)): 106 % of control | T/C (endpoint: mean survival time, dose: 50.0 mg/kg/injection, schedule: Q04DX003 (ip), vehicle: Klucel (hydroxypropylcellulose) (HPC)): 100 % of control | T/C (endpoint: mean survival time, dose: 75.0 mg/kg/injection, schedule: Q04DX003 (ip), vehicle: saline sonified): 97 % of control | T/C [1]: 88 % of control | T/C (endpoint: mean survival time, dose: 150.0 mg/kg/injection, schedule: Q04DX003 (ip), vehicle: saline sonified): 95 % of control | T/C (endpoint: mean survival time, dose: 300.0 mg/kg/injection, schedule: Q04DX003 (ip), vehicle: saline sonified): 101 % of control

O=Cc1c[nH]c2ccc(Br)cc12
T/C (endpoint: mean survival time, dose: 100.0 mg/kg/injection, schedule: Q01DX009 (ip), vehicle: saline): 105 % of control | T/C (endpoint: mean survival time, dose: 200.0 mg/kg/injection, schedule: Q01DX009 (ip), vehicle: saline): 113 % of control | T/C (endpoint: mean survival time, dose: 400.0 mg/kg/injection, schedule: Q01DX009 (ip), vehicle: saline): 100 % of control

O=C(O)CCC(=O)NNC(=O)c1cccnc1
T/C (endpoint: mean survival time, dose: 25.0 mg/kg/injection, schedule: Q04DX002 (ip), vehicle: saline with Tween-80): 107 % of control | T/C (endpoint: mean survival time, dose: 50.0 mg/kg/injection, schedule: Q04DX002 (ip), vehicle: saline with Tween-80): 104 % of control | T/C [5]: 106 % of control | T/C (endpoint: mean survival time, dose: 100.0 mg/kg/injection, schedule: Q04DX002 (ip), vehicle: saline with Tween-80): 107 % of control | T/C (endpoint: mean survival time, dose: 200.0 mg/kg/injection, schedule: Q01DX001 (ip), vehicle: saline with Tween-80): 106 % of control | T/C (endpoint: mean survival time, dose: 400.0 mg/kg/injection, schedule: Q01DX001 (ip), vehicle: saline with Tween-80): 98 % of control

O=NN(CCCl)C(=O)NC1CCCN(Cc2ccccc2)C1 (configuration not stated)
T/C (endpoint: mean survival time, dose: 6.25 mg/kg/injection, schedule: Q01DX001 (ip), vehicle: saline with Tween-80): 106 % of control | T/C (endpoint: mean survival time, dose: 12.5 mg/kg/injection, schedule: Q01DX001 (ip), vehicle: saline with Tween-80): 115 % of control | T/C (endpoint: mean survival time, dose: 50.0 mg/kg/injection, schedule: Q01DX001 (ip), vehicle: saline with Tween-80): 168 % of control | T/C [5]: 340 % of control

Cc1ccccc1NCc1ccccc1
T/C (endpoint: mean survival time, dose: 100.0 mg/kg/injection, schedule: Q04DX003 (ip), vehicle: other): 101 % of control | T/C (endpoint: mean survival time, dose: 200.0 mg/kg/injection, schedule: Q04DX003 (ip), vehicle: other): 103 % of control | T/C (endpoint: mean survival time, dose: 400.0 mg/kg/injection, schedule: Q04DX003 (ip), vehicle: other): 100 % of control

ClC(Cl)(Cl)C1OCCO1
T/C [2]: 95 % of control | T/C (endpoint: mean survival time, dose: 100.0 mg/kg/injection, schedule: Q04DX003 (ip), vehicle: saline with Tween-80): 97 % of control | T/C [3]: 104 % of control | T/C (endpoint: mean survival time, dose: 200.0 mg/kg/injection, schedule: Q04DX003 (ip), vehicle: saline with Tween-80): 102 % of control | T/C [4]: 91 % of control | T/C (endpoint: mean survival time, dose: 400.0 mg/kg/injection, schedule: Q04DX003 (ip), vehicle: saline with Tween-80): 97 % of control

NC(=S)N/N=C1\c2cc(Cl)ccc2-c2c1cc(Cl)cc2[N+](=O)[O-]
T/C (endpoint: mean survival time, dose: 50.0 mg/kg/injection, schedule: Q01DX001 (ip), vehicle: carboxymethylcellulose (CMC)): 102 % of control | T/C (endpoint: mean survival time, dose: 100.0 mg/kg/injection, schedule: Q01DX001 (ip), vehicle: carboxymethylcellulose (CMC)): 102 % of control

O=S(=O)(O)C(O)c1cccnc1 (configuration not stated)
T/C [2]: 98 % of control | T/C (endpoint: mean survival time, dose: 100.0 mg/kg/injection, schedule: Q04DX003 (ip), vehicle: saline sonified): 95 % of control | T/C [3]: 96 % of control | T/C (endpoint: mean survival time, dose: 200.0 mg/kg/injection, schedule: Q04DX003 (ip), vehicle: saline sonified): 105 % of control | T/C [4]: 95 % of control | T/C (endpoint: mean survival time, dose: 400.0 mg/kg/injection, schedule: Q04DX003 (ip), vehicle: saline sonified): 89 % of control

O=c1[nH]cnc2[nH]ncc12
T/C (endpoint: mean survival time, dose: 8.4 mg/kg/injection, schedule: Q04DX003 (ip), vehicle: saline with Tween-80): 99 % of control | T/C (endpoint: mean survival time, dose: 14.0 mg/kg/injection, schedule: Q04DX003 (ip), vehicle: saline with Tween-80): 103 % of control | T/C (endpoint: mean survival time, dose: 23.4 mg/kg/injection, schedule: Q04DX003 (ip), vehicle: saline with Tween-80): 96 % of control | T/C (endpoint: mean survival time, dose: 39.0 mg/kg/injection, schedule: Q04DX003 (ip), vehicle: saline with Tween-80): 101 % of control and 111 % of control | T/C (endpoint: mean survival time, dose: 50.0 mg/kg/injection, schedule: Q01DX009 (ip), vehicle: saline with Tween-80): 104 % of control | T/C (endpoint: mean survival time, dose: 60.0 mg/kg/injection, schedule: Q01DX006 (ip), vehicle: saline with Tween-80): 97 % of control | T/C (endpoint: mean survival time, dose: 65.0 mg/kg/injection, schedule: Q04DX003 (ip), vehicle: saline with Tween-80): 99 % of control and 104 % of control | T/C [2]: 106 % of control | T/C (endpoint: mean survival time, dose: 108.0 mg/kg/injection, schedule: Q04DX003 (ip), vehicle: saline with Tween-80): 108 % of control and 111 % of control | T/C (endpoint: mean survival time, dose: 120.0 mg/kg/injection, schedule: Q01DX006 (ip), vehicle: saline with Tween-80): 107 % of control | T/C (endpoint: mean survival time, dose: 180.0 mg/kg/injection, schedule: Q04DX003 (ip), vehicle: saline with Tween-80): 106 % of control and 109 % of control | T/C [3]: 107 % of control | T/C (endpoint: mean survival time, dose: 300.0 mg/kg/injection, schedule: Q04DX003 (ip), vehicle: saline with Tween-80): 104 % of control | T/C (endpoint: mean survival time, dose: 500.0 mg/kg/injection, schedule: Q04DX003 (ip), vehicle: saline with Tween-80): 104 % of control | T/C (endpoint: mean survival time, dose: 833.0 mg/kg/injection, schedule: Q04DX003 (ip), vehicle: saline with Tween-80): 97 % of control | T/C (endpoint: median survival time, dose: 12.5 mg/kg/injection, schedule: Q01DX009 (ip), vehicle: suspension in saline): 101 % of control | T/C (endpoint: median survival time, dose: 25.0 mg/kg/injection, schedule: Q01DX009 (ip), vehicle: suspension in saline): 103 % of control | T/C (endpoint: median survival time, dose: 50.0 mg/kg/injection, schedule: Q01DX009 (ip), vehicle: suspension in saline): 100 % of control | T/C (endpoint: median survival time, dose: 100.0 mg/kg/injection, schedule: Q01DX009 (ip), vehicle: suspension in saline): 101 % of control | T/C (endpoint: median survival time, dose: 200.0 mg/kg/injection, schedule: Q01DX009 (ip), vehicle: suspension in saline): 107 % of control
